What is called half-life is how long it takes for the measured level to halve.

Entries after “also recorded” stand apart in the source; their conditions may differ. Where two headings read alike, the source gives them in different places.

In data set [1] the test system is isolated CB-CSN preparations. Briefly: hypoxia-induced CSN activity in isolated superfused CB-CSN preparation. Set-up: species or system C57B1/6J (WT) mice. As to conditions: effect of nonspecific TRP channel antagonist. The text has this: SKF and 2-APB data were pooled, *p<0.05.
Leptin and carotid body function CBs are major peripheral O2 sensors, which initiate chemosensory inputs in the CSN to the respiratory centers via nucleus solitarius to evoke acute hyperventilation, and the rostral ventrolateral medulla presympathetic neurons to stimulate SNS activity. CB plays critical roles in the development of hypertension during chronic intermittent hypoxia (CIH); and the sympatho-excitation and destabilization of breathing during heart failure. However, the connection between CB and the obesity-associated hypertension and respiratory instability has not been clearly established. […] The effect of leptin on isolated CB-CSN preparations from C57B1/6J (WT) mice was studied.

Data set [2] concerns rat glomus cells. Conditions: cited from earlier work.
Data set [3] addresses TRPM7 (Homo sapiens, UniProt Q96QT4). Conditions: cited from earlier work.
Data set [4] deals with TRPM7. In words: Trpm7 mRNA level by qPCR in PC12^LEPRb cells. Format: cell-based. As to conditions: 48 hr exposure. How it is done:
FIG. 8A-8C illustrates exposure of leptin to Leprb-expressing PC12^LEPRb cells increased Trpm7 promoter activity and gene transcription. (A) PC12^LEPRb cells transfected with either pEZX-Luc-vector (empty, no insert) or pEZX-Luc-Trpm7 (promoter insert) were exposed to 1 ng/ml leptin for 48 hr prior to measurement of luciferase activity. B and C) Gene expression and promoter methylation of Trpm7 in cells exposed to leptin or 5-aza-dC for 48 hr. Trpm7 mRNA level was quantitated by qPCR. Methylation status of CpG sites in Trpm7 promoter were determined by bisulfite sequencing. A total of 40 CpG sites per clone and 6 individual clones for each treatment group were sequenced. Each row of circles represented an individual clone. Putative TF binding sites such as STAT3 and NFkB were shown in scale in Trpm7 promoter. TSS: transcription start site. Boxed regions highlight the CpG sites showing differential methylation in cells exposed to leptin or 5-aza-dC. (p<0.05). Values were mean±SD.
Leptin can regulate gene transcription by binding to ObRb to activate Janus kinase 2/signal transducers and activator of transcription 3 (JAK2/STAT3) as well as ERK1/2 and PI3K pathways (FIG. 7), which are known to regulate a wide variety of genes. To examine the possible regulation of Trpm7 transcription by leptin, we searched the Trpm7 promoter sequence for potential binding sites for transcription factors (TFs). […]
(In general: In qPCR the cycle at which signal appears reflects the starting amount.)

Data set [5] deals with C57BL/6J mice. Briefly: telemetric blood pressure in mice, leptin-induced hypertension. Conditions: FTY720 SC 0.1 mg/day (approximately 3 mg/kg/day) with leptin. Format: in vivo, mouse. How it is done:
Leptin signals in the CB to increase blood pressure. Male C57BL/6J mice, n=6 housed in a 12 hr light/dark cycle underwent telemetry implantation (Data Sciences) in the left femoral artery as we have described. […] After 4 day recovery mice were treated with vehicle (saline) regaining weight. On Day 17th of the protocol, carotid sinus nerve dissection (CSND, CB denervation) was performed bilaterally. After 1 week recovery, leptin and vehicle infusions were repeated. […] In contrast, CB denervation greatly modified cardiovascular effects of leptin. Indeed, in mice with intact carotid bodies leptin increased mean arterial pressure by 13 mm Hg during the day and by 16 mm Hg at night (FIG. 16A). […] Thus, leptin increases blood pressure acting in the CB.
FTY720 abolishes leptin-induced hypertension. There are multiple TRPM7 inhibitors available. We used a potent TRPM7 inhibitor FTY720 for several reasons. FTY720 is a novel immunomodulator and a structural homolog of shingosine-1-phosphate (S1P) blocking S1P effects in many diseases, including atherosclerosis, cancer, asthma, autoimmune diseases and acute lung injury. First, FTY270 has already been approved by FDA for multiple sclerosis (fingolimod). […] The experiment was performed in lean (24-26 g) C57BL/6J mice (n=5). Telemetry for continuous blood pressure recording was inserted. After 5 day recovery, mice were treated with leptin for 3 days as above. The pump was removed. After 7 day recovery, leptin was reinfused as above, but FTY720 was infused SC simultaneously at 0.1 mg/day (approximately 3 mg/kg/day).
Obesity leads to cardiovascular morbidity and mortality acting via multiple mechanisms including hypertension and obstructive sleep apnea. High levels of leptin have been associated with both conditions. The carotid bodies (CB) express leptin receptor (LepR), but the mechanism of leptin in CB is unknown. […] (CSND). In mice with intact CB, leptin increased mean arterial pressure by 13 mm Hg during the day and by 16 mm Hg at night (p=0.003 for the effect of leptin). […] Leptin receptor expression in carotid bodies of leptin receptor deficient db/db mice led to the same effect (n=6, p<0.05). […] Finally, the inventors tested the effect of a Trpm7 inhibitor on leptin-induced hypertension. The inventors performed blood pressure monitoring in male C57BL/6J mice (n=5˜9) at baseline, during leptin infusion with or without Trpm7 inhibitor, FTY720 (3 mg/kg/day, sc, n=5) for 24 hrs. […] The inventors conclude that leptin increases blood pressure acting in the CB via the Trpm7 channel.

For data set [6], the target named is T1, TRPM7 (Rattus norvegicus, UniProt Q925B3).
T1 construct: PC12 cells are oxygen-sensitive, express high level of TRPM7; endogenous in cells; host or cells: PC12^LEPRb cells (PC12 transfected with leptin receptor LEPRb; TRPM7 itself not transfected)
T1 sequence (Q925B3 whole entry): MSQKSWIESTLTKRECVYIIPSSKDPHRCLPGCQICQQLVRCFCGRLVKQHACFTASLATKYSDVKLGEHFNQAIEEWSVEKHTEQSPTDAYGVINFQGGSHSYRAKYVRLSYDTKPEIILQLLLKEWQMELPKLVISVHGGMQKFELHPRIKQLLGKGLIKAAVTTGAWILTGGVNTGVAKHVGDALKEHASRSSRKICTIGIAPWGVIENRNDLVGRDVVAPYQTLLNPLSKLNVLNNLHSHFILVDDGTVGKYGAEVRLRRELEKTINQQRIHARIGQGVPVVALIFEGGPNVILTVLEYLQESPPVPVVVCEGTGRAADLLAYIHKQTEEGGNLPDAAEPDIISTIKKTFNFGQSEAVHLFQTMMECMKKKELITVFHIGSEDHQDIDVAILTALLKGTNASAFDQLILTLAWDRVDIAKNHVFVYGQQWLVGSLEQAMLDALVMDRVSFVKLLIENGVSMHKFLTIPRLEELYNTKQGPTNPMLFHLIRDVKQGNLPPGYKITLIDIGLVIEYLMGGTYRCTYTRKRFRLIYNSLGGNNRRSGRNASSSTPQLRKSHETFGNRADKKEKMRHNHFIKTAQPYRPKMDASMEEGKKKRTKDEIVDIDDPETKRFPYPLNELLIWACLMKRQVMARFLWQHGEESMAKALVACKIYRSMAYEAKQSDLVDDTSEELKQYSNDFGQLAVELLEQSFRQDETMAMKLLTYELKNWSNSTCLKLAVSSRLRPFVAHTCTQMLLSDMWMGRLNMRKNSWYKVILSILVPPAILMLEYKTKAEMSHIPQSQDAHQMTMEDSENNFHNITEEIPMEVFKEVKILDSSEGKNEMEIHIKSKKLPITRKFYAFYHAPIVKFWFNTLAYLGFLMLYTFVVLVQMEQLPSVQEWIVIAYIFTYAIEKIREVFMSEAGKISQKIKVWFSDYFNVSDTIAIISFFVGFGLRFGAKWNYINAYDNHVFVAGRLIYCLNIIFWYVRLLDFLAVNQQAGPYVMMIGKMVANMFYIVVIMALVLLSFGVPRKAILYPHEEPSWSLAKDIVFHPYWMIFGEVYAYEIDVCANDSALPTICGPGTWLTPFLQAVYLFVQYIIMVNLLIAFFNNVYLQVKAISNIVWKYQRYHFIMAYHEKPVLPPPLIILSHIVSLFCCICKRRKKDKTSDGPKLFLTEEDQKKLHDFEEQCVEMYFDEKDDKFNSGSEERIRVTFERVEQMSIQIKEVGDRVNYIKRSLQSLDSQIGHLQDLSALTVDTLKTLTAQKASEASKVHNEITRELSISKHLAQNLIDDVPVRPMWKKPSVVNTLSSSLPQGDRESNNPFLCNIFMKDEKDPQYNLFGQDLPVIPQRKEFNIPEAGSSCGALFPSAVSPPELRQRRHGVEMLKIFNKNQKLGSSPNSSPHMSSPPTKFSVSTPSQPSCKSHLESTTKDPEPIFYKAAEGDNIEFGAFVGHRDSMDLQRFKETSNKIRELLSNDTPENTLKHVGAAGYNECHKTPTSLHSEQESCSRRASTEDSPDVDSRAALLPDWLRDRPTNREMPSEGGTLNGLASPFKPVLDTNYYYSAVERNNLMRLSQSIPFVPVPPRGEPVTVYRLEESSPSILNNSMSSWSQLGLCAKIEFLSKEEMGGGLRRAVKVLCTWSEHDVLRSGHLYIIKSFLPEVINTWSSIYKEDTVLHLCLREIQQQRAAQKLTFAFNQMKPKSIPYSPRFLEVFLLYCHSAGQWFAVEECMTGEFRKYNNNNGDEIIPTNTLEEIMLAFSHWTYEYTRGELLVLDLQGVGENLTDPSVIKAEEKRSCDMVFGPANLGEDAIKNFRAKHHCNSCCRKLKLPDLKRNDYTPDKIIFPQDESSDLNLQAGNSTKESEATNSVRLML
In words: non-selective cation (TRPM7) current, amphotericin-B perforated-patch recording in PC12^LEPRb cells. The format is cell-based. Conditions: for leptin-enhanced non-selective cation current / naltriben-induced increase of the current: effect of TRPM7 antagonist. The text has this:
FIG. 5A-5C illustrates leptin enhances TRPM7 current in leptin receptor expressing PC12 cells.
Leptin can regulate TRPM7 channel activity. Leptin exerts its action by binding to the long form of leptin receptors (LEPRb, ObRb), which is the only functional isoform of leptin receptor. The possible effect of leptin on TRPM7 channel activity was investigated, by using LEPRb expressing adrenal pheochromocytoma PC12 (PC12^LEPRb) cells as the cell model, because PC12 cells are oxygen-sensitive, express high level of TRPM7 and have been used widely in the studies of chemoreception. Non-selective cation current was recorded using amphotericin-B perforated-patch technique in the absence of extracellular and intracellular K^+ (replaced by Cs^+) and Mg^2+, after VDCC was blocked by nifedipine and Cl^− currents were inhibited by DIDS and niflumic acid. Voltage-ramp of −100 to +100 mV elicited an outward rectifying current that resembled TRPM7 current reported in other cell types. […] The leptin-induced current was not observed in PC12 cells transfected with a control plasmid (data not shown). The present invention provides the first evidence showing activation of leptin receptor is capable of enhancing TRPM7 activity, and it supports our hypothesis that leptin may enhance CB activity through regulation of TRPM7 activity.
Obesity is a leading cause of high cardiovascular morbidity and mortality. It is characterized by an increased leptin level, which has been implicated in increased sympathetic activity and the pathogenesis of hypertension. However, the mechanism by which leptin enhances sympathetic activity is unclear. Leptin receptors (LEPRs) are expressed in the carotid bodies, the most important arterial chemoreceptors for the cardiovascular-respiratory chemoreflex. Since leptin is known to regulate many different ion channels, we hypothesize that leptin may exert its effects through modulation of TRPM7 channel activity. To test this hypothesis, the inventors used LEPR (LEPRb) expressing pheochromocytoma (PC12^LEPRb) cells, which expresses high levels of TRPM7 channels, as the cell model. Non-selective cation channels were recorded under amphotericin-B perforated-patch techniques with K^+ replaced by Cs^+ in the presence of voltage-gated Ca^2+ channel and Cl^− channel blockers. Voltage-ramp from −100 to 100 mV activated an outward-rectifying current. Removal of extracellular divalent ions enhanced the inward current, consistent with the inward divalent ion selectivity of TRPM7.

For data set [7] the following is noted: mice; cited from earlier work.
For data set [8] the following is noted: humans; cited from earlier work.
Data set [9] has as its system C57BL/6J mice. Briefly: minute ventilation and hypoxic ventilatory response (HVR) in awake lean mice. Format: in vivo, mouse. As to conditions: NS8593 10 mg/kg/day subcutaneously via osmotic pump for 3 days with leptin. On the procedure:
Leptin increases the HVR in lean mice. Minute ventilation (VE) was measured at normoxic conditions and during 3-5 min exposure to 10% O2 in awake lean male C57BL/6J mice, n=4, at baseline and during leptin administration (30 μg/day for 3 days via a subcutaneous osmotic pump). Serum leptin levels increased from 0.8±0.2 ng/ml to 33.2±1.9 ng/ml, which was similar to previously reported in DIO mice and obese humans, and then returned to the baseline. Mice decreased food intake and lost weight. Leptin increased VE at baseline as a result of an increase in the metabolic rate (FIG. 10). Leptin increased the HVR by greater than 60%.
Trpm7 inhibition prevents effects of leptin on the HVR. […] Male C57BL/6J mice (n=2) were treated with leptin for 3 days as described above. After 5 day recovery, leptin and a TRPM7 blocker NS8593 (10 mg/kg/day) were administered subcutaneously via an osmotic pump for 3 days. Mice reduced food intake and lost weight with leptin, regardless of the TRPM7 inhibitor.

Chain of TRPM7 (Homo sapiens, UniProt Q96QT4) (Q96QT4 whole entry, species assumed): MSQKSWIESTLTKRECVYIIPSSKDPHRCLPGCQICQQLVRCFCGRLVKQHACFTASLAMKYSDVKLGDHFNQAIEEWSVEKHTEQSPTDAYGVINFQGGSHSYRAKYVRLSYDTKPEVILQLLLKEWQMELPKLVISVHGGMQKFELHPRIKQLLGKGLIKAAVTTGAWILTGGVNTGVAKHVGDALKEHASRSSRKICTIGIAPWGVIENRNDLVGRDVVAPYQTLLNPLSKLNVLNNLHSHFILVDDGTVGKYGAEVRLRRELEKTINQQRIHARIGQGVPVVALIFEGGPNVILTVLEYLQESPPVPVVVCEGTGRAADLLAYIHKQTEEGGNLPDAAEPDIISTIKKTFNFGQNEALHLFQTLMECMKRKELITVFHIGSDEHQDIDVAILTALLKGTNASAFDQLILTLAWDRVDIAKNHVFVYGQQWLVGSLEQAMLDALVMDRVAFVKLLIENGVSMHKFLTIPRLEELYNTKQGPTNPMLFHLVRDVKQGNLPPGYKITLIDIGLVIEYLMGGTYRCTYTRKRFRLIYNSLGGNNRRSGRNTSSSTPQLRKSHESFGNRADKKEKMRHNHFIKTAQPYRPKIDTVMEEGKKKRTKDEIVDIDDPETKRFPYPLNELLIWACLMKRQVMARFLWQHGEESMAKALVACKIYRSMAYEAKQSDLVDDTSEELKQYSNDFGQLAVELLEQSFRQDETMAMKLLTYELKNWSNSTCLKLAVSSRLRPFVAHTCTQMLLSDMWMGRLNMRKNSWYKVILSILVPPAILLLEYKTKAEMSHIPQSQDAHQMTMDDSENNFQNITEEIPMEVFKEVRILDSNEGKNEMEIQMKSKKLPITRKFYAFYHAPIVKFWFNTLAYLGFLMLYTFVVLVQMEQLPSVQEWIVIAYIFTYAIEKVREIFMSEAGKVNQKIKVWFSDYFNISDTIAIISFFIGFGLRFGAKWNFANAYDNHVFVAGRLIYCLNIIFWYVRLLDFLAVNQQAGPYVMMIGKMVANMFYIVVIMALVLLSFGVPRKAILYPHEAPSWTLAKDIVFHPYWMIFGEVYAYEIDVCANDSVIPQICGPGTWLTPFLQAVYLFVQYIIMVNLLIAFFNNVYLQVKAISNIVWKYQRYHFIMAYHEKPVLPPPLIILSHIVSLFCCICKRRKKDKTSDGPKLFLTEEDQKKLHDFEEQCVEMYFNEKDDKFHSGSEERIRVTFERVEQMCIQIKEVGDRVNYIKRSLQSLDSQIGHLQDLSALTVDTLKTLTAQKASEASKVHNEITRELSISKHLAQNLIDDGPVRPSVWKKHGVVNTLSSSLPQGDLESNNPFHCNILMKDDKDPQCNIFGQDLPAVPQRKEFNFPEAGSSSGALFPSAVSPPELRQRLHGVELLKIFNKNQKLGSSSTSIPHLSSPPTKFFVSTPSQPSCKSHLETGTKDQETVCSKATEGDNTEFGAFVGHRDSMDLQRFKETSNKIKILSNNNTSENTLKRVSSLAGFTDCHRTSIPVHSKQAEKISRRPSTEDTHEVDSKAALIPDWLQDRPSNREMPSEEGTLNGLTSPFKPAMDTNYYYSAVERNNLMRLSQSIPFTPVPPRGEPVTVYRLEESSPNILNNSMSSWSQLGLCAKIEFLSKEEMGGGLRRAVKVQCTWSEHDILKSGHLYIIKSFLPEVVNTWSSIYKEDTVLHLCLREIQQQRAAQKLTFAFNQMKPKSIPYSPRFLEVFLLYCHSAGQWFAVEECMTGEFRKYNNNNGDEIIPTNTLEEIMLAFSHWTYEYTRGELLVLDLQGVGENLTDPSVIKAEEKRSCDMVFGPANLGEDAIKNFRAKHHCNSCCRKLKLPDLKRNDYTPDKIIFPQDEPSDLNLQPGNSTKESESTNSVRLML

As for `NCCOB(c1ccccc1)c1ccccc1` [2-APB, 2-aminoethoxydiphenylborane], in [1], the “leptin-enhanced hypoxia-induced CSN activity” value is listed as “blocked”. Also, the “elevation of [Ca2+]i induced by hypoxia, NaCN and FCCP” value in data set [2] was “inhibited”. Moreover, the TRPM7 channel activity entry in [3] was “inhibited”.

For the compound `Nc1ncn([C@H]2C[C@H](O)[C@@H](CO)O2)c(=O)n1` [5-aza-dC], the “Trpm7 mRNA level” value in [4] was “increased”.

Regarding `CCCCCCCCc1ccc(CCC(N)(CO)CO)cc1` [FTY720, 2-amino-2-[2-(4-octylphenyl)ethyl]propane-1,3-diol], in data set [5], the leptin-induced hypertension entry is “completely abolished; also recorded: prevented”. For the same compound, the results for the “leptin-enhanced non-selective cation current” value in data set [6] and in data set [6] (listed as FTY120) were “significantly inhibited; also recorded: completely blocked” and “almost completely abolished”, respectively. Further, the “naltriben-induced increase of the current” value in data set [6] is reported as “abolished”. Moreover, the TRPM7 channel activity result in data set [3] is “inhibited”. For the same compound, the half-life is 19 to 28 h in data set [7] and 7 days in [8].

In the case of `Cl.c1ccc2c(c1)CCC[C@H]2Nc1nc2ccccc2[nH]1` [NS8593, N-[(1R)-1,2,3,4-Tetrahydro-1-naphthalenyl]-1H-Benzimidazol-2-aminehydrochloride], the basal ventilation entry in data set [9] is “without any effect”. Besides, in data set [9] (10 mg/kg/day), the “leptin-induced hypoxic hyperventilation (VE during acute hypoxia)” value is reported as “abolished; also recorded: prevented” and the “leptin-induced increase in the HVR” value was “abolished; also recorded: abolishing”. Moreover, in data set [6], the “leptin-enhanced non-selective cation current” value is given as “completely blocked; also recorded: almost completely abolished” and the “naltriben-induced increase of the current” value is given as “abolished”. In addition, the TRPM7 channel activity entry in data set [3] is reported as “inhibited”.

In the case of `COc1ccc(CCCOC(Cn2ccnc2)c2ccc(OC)cc2)cc1` (stereo not shown) [SKF96365], the “leptin-enhanced hypoxia-induced CSN activity” value in [1] is reported as “dampened; also recorded: blocked”.

Take `Cc1ccc(C(C)C)cc1O` [carvacrol]: the TRPM7 channel activity entry in data set [3] was “inhibited”.

With `Oc1ccc2c3c1O[C@H]1c4oc5ccccc5c4C[C@@]4(O)[C@@H](C2)N(CC2CC2)CC[C@]314` [naltriben], the “outward rectifying non-selective cation (TRPM7) current” value in [6] (effect of TRPM7 agonist (50 μM elsewhere in the source), voltage-ramp −100 to +100 mV) was “significant augmentation; also recorded: significant increase”. Further, the TRPM7 channel activity entry in data set [3] was “activated”.

In the case of `CCCCCCCCCCCCC/C=C/[C@@H](O)[C@@H](N)CO` [sphingosine], the TRPM7 channel activity result in data set [3] was “inhibited”.

These data come from US20200054581A1, “APPLICATION OF TRPM7 INHIBITORS TO TREAT SLEEP APNEA AND HYPERTENSION IN OBESITY” (THE JOHNS HOPKINS UNIVERSITY, priority 2017, published 2020).
